In US20150218212A1, “FLUORINATED EPOXYKETONE-BASED TETRAPEPTIDE COMPOUNDS AND USES THEREOF AS PROTEASOME INHIBITORS” (FLUORINOV PHARMA INC., priority 2012, published 2015):

Tests used:
SR = assay: NCI screening panel, SR (Leukemia); format: cell-based, human
Description: (§1) Representative compounds of Formula I were screened using the National Cancer Institute (NCI) screening panel, which consists of a panel of human tumor cell lines, representing leukemia, melanoma, and cancers of the lung, colon, ovary, breast, prostate and renal system.
(§2) After 24 h, two plates of each cell line are fixed in situ with TCA, to represent a measurement of the cell population for each cell line at the time of drug addition (Tz). Experimental drugs are solubilised in dimethyl sulfoxide at 400-fold the desired final maximum test concentration and stored frozen prior to use. At the time of drug addition, an aliquot of frozen concentrate is thawed and diluted to twice the desired final maximum test concentration with complete medium containing 50 μg/mL gentamicin. Additional four, 10-fold or ½ log serial dilutions are made to provide a total of five drug concentrations plus control. Aliquots of 100 μl of these different drug dilutions are added to the appropriate microtiter wells already containing 100 μl of medium, resulting in the required final drug concentrations.
(§3) Following drug addition, the plates are incubated for an additional 48 h at 37° C., 5% CO2, 95% air, and 100% relative humidity. For adherent cells, the assay is terminated by the addition of cold TCA (trichloroacetic acid). Cells are fixed in situ by the gentle addition of 50 μl of cold 50% (w/v) TCA (final concentration, 10% TCA) and incubated for 60 minutes at 4° C. The supernatant is discarded, and the plates are washed five times with tap water and air dried. Sulforhodamine B (SRB) solution (100 μl) at 0.4% (w/v) in 1% acetic acid is added to each well, and plates are incubated for 10 minutes at room temperature. After staining, unbound dye is removed by washing five times with 1% acetic acid and the plates are air dried. Bound stain is subsequently solubilised with 10 mM trizma base, and the absorbance is read on an automated plate reader at a wavelength of 515 nm. For suspension cells, the methodology is the same except that the assay is terminated by fixing settled cells at the bottom of the wells by gently adding 50 μl of 80% TCA (final concentration, 16% TCA). Using the seven absorbance measurements [time zero, (Tz), control growth, (C), and test growth in the presence of drug at the five concentration levels (Ti)], the percentage growth is calculated at each of the drug concentrations levels. Percentage growth inhibition is calculated as: [(Ti−Tz)/(C−Tz)]×100 for concentrations for which Ti>/=Tz and [(Ti−Tz)/Tz]×100 for concentrations for which Ti<Tz.
(§4) Three dose response parameters are calculated for each experimental agent. Growth inhibition of 50% (GI50) is calculated from [(Ti−Tz)/(C−Tz)]×100=50, which is the drug concentration resulting in a 50% reduction in the net protein increase (as measured by SRB staining) in control cells during the drug incubation. The drug concentration resulting in total growth inhibition (TGI) is calculated from Ti=Tz. The LC50 (concentration of drug resulting in a 50% reduction in the measured protein at the end of the drug treatment as compared to that at the beginning) indicating a net loss of cells following treatment is calculated from [(Ti−Tz)/Tz]×100=−50. Values are calculated for each of these three parameters if the level of activity is reached. However, if the effect is not reached or is exceeded, the value for that parameter is expressed as greater or less than the maximum or minimum concentration tested.

SK-MEL-28 = assay: NCI screening panel, SK-MEL-28 (Melanoma); format: cell-based, human
Description: as §1, §2, §3, §4

A549/ATCC = assay: NCI screening panel, A549/ATCC (Non-Small Cell Lung Cancer); format: cell-based, human
Description: as §1, §2, §3, §4

OCI-AML-2 = assay: Cell viability (MTS) assay, OCI-AML-2; format: cell-based; settings: Homo sapiens, OCI-AML2; OCI-AML-2, MTS, 72 hours, mean ± standard deviation
Description: Human multiple myeloma cell lines 8226, H929, JJN3, KMH11, KMS11, KMS18, LP1, MM1S, OPM2 and U266 were grown in Iscove modified Dulbecco's medium (IMDM). Human leukemia cell lines K562, OCI-AML2 and U937 were cultured in RPMI-1640 medium. Primary peripheral blood mononuclear cells were isolated from multiple myeloma patients by Ficoll density gradient centrifugation and bone marrow aspirates were obtained from multiple myeloma patients at the Princess Margaret Cancer Centre of the University Health Network (UHN; Toronto, ON, Canada). Primary cells were cultured in IMDM. The collection and use of human tissue for this study was approved by the UHN institutional ethics review board. All cell culture media were obtained from the Ontario Cancer Institute Tissue Culture Media Facility (Toronto, ON, Canada) and were supplemented with 10% fetal calf serum, […] (Hyclone, Logan, Utah). All cells were grown in a humidified incubator at 37° C. with 5% CO2.
Cellular viability was primarily assessed by 3-(4,5-dimethylthiazol-2-yl)-5-(3-carboxymethoxyphenyl)-2-(4-sulfophenyl)-2H-tetrazolium (MTS) assay according to the manufacturer's instructions (Promega; Madison, Wis.). Cells were first seeded at a density of 10,000 cells per well in tissue culture-treated 96-well plates. Two hours after seeding, cells were treated with compounds for 72 hours at concentrations as indicated. As a control, cells were treated with DMSO alone in every assay plate. Following treatment and the MTS assay, cell viability was independently confirmed by reading the optical density (O.D.) at 490 nm and by exclusion of trypan blue stain (Invitrogen; Burlington, ON, Canada). The viability of primary mononuclear cells was determined by staining with Annexin V.
Table 8 summarizes the data of representative compounds of Formula I for cell viability and CT-L proteasome activity with OCI-AML-2 and KMS-11 cell lines.

K-562 = assay: NCI screening panel, K-562 (Leukemia); format: cell-based, human
Description: as §1, §2, §3, §4

IGROV1 = assay: NCI screening panel, IGROV1 (Ovarian Cancer); format: cell-based, human
Description: as §1, §2, §3, §4

HOP-62 = assay: NCI screening panel, HOP-62 (Non-Small Cell Lung Cancer); format: cell-based, human
Description: as §1, §2, §3, §4

MDA-MB-231/ATCC = assay: NCI screening panel, MDA-MB-231/ATCC (Breast Cancer); format: cell-based, human
Description: as §1, §2, §3, §4

BT-549 = assay: NCI screening panel, BT-549 (Breast Cancer); format: cell-based, human
Description: as §1, §2, §3, §4

MDA-MB-468 = assay: NCI screening panel, MDA-MB-468 (Breast Cancer); format: cell-based, human
Description: as §1, §2, §3, §4

CC(C)C[C@H](NC(=O)[C@H](COC(F)F)NC(=O)CN1CCOCC1)C(=O)N[C@@H](Cc1ccccc1)C(=O)N[C@@H](Cc1ccccc1)C(=O)[C@@]1(C)CO1 [Example 3, (2S)-N-[(1S)-1-benzyl-2-[[(1S)-1-benzyl-2-[(2R)-2-methyloxiran-2-yl]-2-oxo-ethyl]amino]-2-oxo-ethyl]-2-[[(2S)-3-(difluoromethoxy)-2-[(2-morpholinoacetyl)-amino]propanoyl]amino]-4-methyl-pentan-amide]
Log10GI50 (SR): <−8.00
Log10LC50 (SR): >−4.00
Log10TGI50 (SR): >−4.00
Log10GI50 (SK-MEL-28): −7.65
Log10LC50 (SK-MEL-28): >−4.00
Log10TGI50 (SK-MEL-28): −6.27
Log10GI50 (A549/ATCC): −7.65
Log10LC50 (A549/ATCC): >−4.00
Log10TGI50 (A549/ATCC): >−4.00
IC50 (OCI-AML-2): 16.3 ± 5.96 nM
Log10GI50 (K-562): −7.77
Log10LC50 (K-562): >−4.00
Log10TGI50 (K-562): >−4.00
Log10GI50 (IGROV1): −7.93
Log10LC50 (IGROV1): >−4.00
Log10TGI50 (IGROV1): −7.02
Log10GI50 (HOP-62): <−8.00
Log10LC50 (HOP-62): −4.76
Log10TGI50 (HOP-62): −7.20
Log10GI50 (MDA-MB-231/ATCC): <−8.00
Log10LC50 (MDA-MB-231/ATCC): −4.81
Log10TGI50 (MDA-MB-231/ATCC): −7.08
Log10GI50 (BT-549): <−8.00
Log10LC50 (BT-549): −4.21
Log10TGI50 (BT-549): −7.32
Log10GI50 (MDA-MB-468): <−8.00
Log10LC50 (MDA-MB-468): −6.09
Log10TGI50 (MDA-MB-468): −7.34
